One may read the Papp A→B as how fast a substance crosses the layer from the apical side.

Data on six compounds can be found in publication PMC3884839, “Pharmacokinetics and pharmacodynamics utilizing unbound target tissue exposure as part of a disposition-based rationale for lead optimization of benzoxaboroles in the treatment of Stage 2 Human African Trypanosomiasis” (Parasitology, 2013).

A short description of data set [1]: Single oral dose pharmacokinetics and CNS penetration in male CD-1 mice. The class given is in vivo, mouse. The method, then:
The CNS disposition and pharmacokinetics of the benzoxaboroles were evaluated in infected and uninfected mice following oral administration. In vivo phases of single-dose rodent PK studies were performed at Vivisource (Waltham, MA) following Institutional Animal Care and Use Committee (IACUC) review in an Association for Assessment and Accreditation of Laboratory Animal Care International (AAALAC)-approved facility. Studies in Trypanosoma brucei brucei (TREU 667 strain) infected mice, or uninfected satellite animals, were performed after IACUC review at Pace University (NewYork, NY).
Male CD-1 or female Swiss Webster mice (approximately 25 g) were administered test compounds by oral gavage either once (QD) or twice per day (Q12 h) with doses ranging between 6 and 100 mg kg^−1 as described below. All compounds were formulated as an in situ sodium salt in 2% (v/v) ethanol, 5% (m/v) dextrose, to yield typically clear colourless solutions that were administered at 4 mL kg^−1. Blood samples for pharmacokinetic studies were collected into polypropylene tubes containing K2EDTA anticoagulant and stored on wet ice until centrifuged and processed to plasma. Plasma was stored at −80 °C. Blood samples from mice were collected via cardiac puncture under terminal anaesthesia. Rodents were euthanized in a CO2 chamber before collection of terminal blood or tissue samples. Brain tissues were blotted dry and stored at approximately −80 °C.
Plasma (50 μL) was treated with 4 volumes of ice-cold methanol (containing 25 ng mL^−1 of either deuterium (d6)-labelled SCYX-7158 internal standard (SCYX-5232) for SCYX-7158 analyses or a related benzoxaborole for other compounds) to precipitate proteins. Treated samples were gently mixed on a 96-well plate shaker for approximately 10 min then centrifuged at approximately 3000 g and 15 °C for 15 min. Supernatants were transferred to fresh 96-well plates for analysis by means of LC-MSMS. Samples of tissue homogenate (50 μL), or buffer from protein binding studies, were treated similarly to plasma samples.
All biological samples were assayed by a verified LC-MSMS method employing two dimensional chromatographic separation to overcome ion suppression (Annesely, [2003]) caused by co-elution of endogenous components with benzoxaboroles. In summary, treated samples were loaded onto Phenomenex (Torrance, CA) Synergi Polar RP, 4 μ, 50×2 mm extraction columns and subsequently back-eluted onto a Phenomenex Luna C8(2) 3 μ, 50×2 mm analytical columns protected by a Phenomenex C8 guard cartridge. Mobile phases for extraction and analytical columns consisted of 5 mM ammonium formate and 0·1% (v/v) formic acid in water (A), and 5 mM ammonium formate and 0·1% (v/v) formic acid in methanol (B). […]

A short description of data set [2]: Binding to human plasma protein by rapid equilibrium dialysis. The class given is in vitro ADME. As to conditions: 1 μg mL^−1. The method, then: Binding to plasma proteins, brain homogenates or proteins in serum-fortified HMI-9 media was determined by rapid equilibrium dialysis (RED) (Pierce, Rockford, IL) using a 48-well plate-based format according to the manufacturer's instructions. Briefly, test compound was added to fresh plasma (Bioreclamation, Liverpool, NY) at the required concentrations, freshly prepared brain homogenate or media. Duplicate aliquots of each sample were transferred into the sample chambers of the RED devices, and dialysis buffer (BupH PBS) was added to the buffer chambers. The plates were sealed and incubated at 37 °C for 4 h. After dialysis, samples collected from the buffer and tissue chambers were treated with ice-cold methanol (3 volumes for plasma or HMI-9 media, 4 volumes for brain) to precipitate proteins. The treated samples were centrifuged for 10 min at approximately 3000 g at 15 °C. The supernatants were assayed for test compound by LC-MSMS. Calibration standards and quality control samples were prepared in matched matrix and assayed with samples. Values for unbound and bound fractions and mass balance were calculated. Concordance of binding for each batch of plasma was confirmed by assay of warfarin, imipramine and carbamezapine. Acceptance criterion for mass balance was 70–120%.
On the technique in general: Equilibrium dialysis compares concentrations on both sides of a semipermeable membrane.

The next data set relates to P-gp (human MDR1). Briefly: MDCKII-hMDR1 monolayer permeability and Pgp-mediated efflux. The class given is in vitro ADME. The note with it: dog, 3 μM. The method, then: (§1) The propensity of test compounds to cross the BBB was examined using an in vitro MDCKII-hMDR1 monolayer assay (Polli et al. [2001]). In summary, MDCKII-hMDR1 cells (Netherlands Cancer Institute, Amsterdam, the Netherlands) were seeded at a density of 3×10^5 cells per well onto microporous polycarbonate membranes in 12 well Costar Transwell plates (Corning Inc., Lowell, MA). The cells were incubated for 3 days during which time they formed confluent monolayers. Trans-epithelial resistance (TEER) was measured for each insert to ensure the integrity of the monolayer (acceptable TEER >160 Ω cm^2). The permeability and susceptibility for Pgp-mediated efflux was evaluated by adding each compound at a concentration of 3 μM, in the presence or absence of 2 μM GF120918 (a potent Pgp inhibitor), to the apical compartment. Competency of the Pgp efflux transporter was confirmed by assay of propranolol (non-substrate) and amprenavir (substrate). Cell monolayers were incubated in triplicate with shaking (160 rpm) at 37 °C in a 5% CO2-enriched humidified atmosphere for 1 h. Samples were removed from the apical and basolateral compartments after incubation and assayed for test compound concentrations by LC-MSMS. Values for mass balance, PappA−B, PappA−B+GF918, and absorption quotient (AQ) were calculated for each compound (Troutman and Thakker, [2003]; Thiel-Demby et al. [2004]). Acceptance criterion for mass balance was 70–120%.

Data set [3] relates to MDCKII-hMDR1 monolayer (Pgp efflux transporter). The data set is described as above. The class given is in vitro ADME. As to conditions: for Mass balance A–B+GF918 / Mass balance A–B: 3 μM; for Mass balance A–B+GF918: with GF918; for Mass balance A–B: without GF918. As for the experimental part:
as §1

Another data set concerns L929 mammalian cell line. The data set can be described thus: L929 mammalian cell cytotoxicity / selectivity. The class given is cell-based. As to conditions: parasite vs L929.
The test system of a further data set is T. b. brucei (TREU 667). The data set can be described thus: Murine model of Stage 2 (CNS) HAT. The class given is in vivo, mouse. The note with it: oral administration. As for the experimental part:
The efficacy of benzoxaboroles was evaluated in a murine model of Stage 2 (CNS) HAT (Nare et al. [2010]; Jacobs et al. [2011]). In summary, mice (n = 10 per group) were infected by bolus i.p. injection of 1×10^4 T. b. brucei (TREU 667) parasites. A single bolus i.p. dose (10 mg kg^-1) of berenil (Sigma-Aldrich, St. Louis, MO) was administered on day 4 as a positive treatment control for haemolymphatic-stage infection. Infection of the remaining animals proceeded for 21 days to establish a CNS infection before treatment with either a single dose of berenil (as above) or test compounds by the oral route either once or twice daily over 7 days at the doses indicated below. Animals were checked at least weekly for parasitaemia and were immediately removed from cages and euthanized upon recrudescence. Animals were considered cured if they were […] for at least 180 days after treatment.

The next data set concerns T. brucei. As to conditions: cited from earlier work.
Details of data set [4]: method as in Sanderson et al. [2008]. As to conditions: mice; ref Sanderson et al. [2008]; cited from earlier work.
On the set-up of data set [5]: method as in Milford et al. [1993]. As to conditions: human patients; ref Milford et al. [1993]; cited from earlier work.
For data set [6] the following is noted: human patients, 24 h after last injection of multi-day regimen; ref Burri and Keiser, [2001]; cited from earlier work.
For data set [7] the following is noted: intravenous 2·2–3·6 mg kg^−1, uninfected vervet monkeys; ref Burri et al. [1994]; cited from earlier work.
The conditions of data set [8]: cited from earlier work.
For the next data set, the system named is T. b. brucei. The data set can be described thus: Serum-shift assay (effect of foetal calf serum on trypanocidal IC50). The class given is cell-based, Trypanosoma brucei brucei. The note with it: 72 h, relative to 2·5% serum. As for the experimental part: To assess the potential effects of protein binding on trypanocidal activity, parasite viability assays were performed in the presence of increasing concentrations (2·5–50%) of foetal calf serum (Invitrogen, Carlsbad, CA) in HMI-9 media. T. b. brucei parasites were conditioned to the test serum concentrations for at least one round of passage prior to assay. Test compounds were added, incubated for 72 h, signal measured and IC50 determinations were conducted as described above using the resazurin endpoint. The fold change in IC50 from minimal serum concentration to maximal serum concentration was calculated and used to compare compounds and their potential for being restrictively protein bound.

Setting [9] is: MDCK-MDR1, with GF120918 2 μM, with 2 μM GF120918, read-out: Papp, A–B direction+GF918.
The mark [10] stands for this setting: MDCK-MDR1, read-out: Papp, A–B direction.

SMILES strings stand for the structures. Read-outs that look alike come from different tables or passages of the source.

With `[O-][S+](c1ccc(Cl)cc1)c1ccc2c(c1)B(O)OC2` (stereo not shown) [AN2920], the “time CNS (brain) total concentration above MIC” value in data set [1] is 1 h. Further, in data set [1] (total concentration), the “time plasma concentration maintained above MIC” value was “approximately 7 h”. This compound displayed a Mass balance in [2] of 106%. For the same compound, the apparent permeability from apical to basolateral (Papp A→B) at 1 h, 3 μM with P-gp (human MDR1) (setting [9]) worked out at 46.5 ×10⁻⁶ cm/s. In addition, the Papp A→B at 1 h, 3 μM with P-gp (human MDR1) (setting [10]) was 43.8 ×10⁻⁶ cm/s. Further, in [3], the P-gp classification result is given as “Non-substrate”, the “Mass balance A–B+GF918” value turned out to be 99% and the “Mass balance A–B” value is listed as 94%. The Selectivity entry in the data set with L929 mammalian cell line is “⩾49”.

In data set [2], `O=C(Nc1ccc2c(c1)B(O)OC2)c1ccccc1C(F)(F)F` [AN3520] showed a Mass balance of 110%. Besides, in the data set with P-gp (human MDR1) (setting [9]), the Papp A→B at 1 h, 3 μM came to 43.4 ×10⁻⁶ cm/s. In the data set with P-gp (human MDR1) (setting [10]), the apical-to-basolateral permeability (Papp A→B) at 1 h, 3 μM was found to be 42.4 ×10⁻⁶ cm/s. In [3], the P-gp classification result is “Non-substrate”, the “Mass balance A–B+GF918” value is 90% and the “Mass balance A–B” value was determined as 92%. For the same compound, in the data set on L929 mammalian cell line, the Selectivity entry was “⩾94”.

In the case of `O=C(Nc1ccc2c(c1)B(O)OC2)c1ccc(F)cc1C(F)(F)F` [SCYX-6759], the “time CNS (brain) total concentration above MIC” value in data set [1] was “approximately 10 h”. Further, in the data set with T. b. brucei (TREU 667), the “cures in the CNS (Stage 2) murine model” value turned out to be 100%. Moreover, the Mass balance in [2] was determined as 97%. Further, the Papp A→B at 1 h, 3 μM with P-gp (human MDR1) (setting [9]) is 38.6 ×10⁻⁶ cm/s. For the same compound, the Papp A→B at 1 h, 3 μM in the data set on P-gp (human MDR1) (setting [10]) amounted to 37.9 ×10⁻⁶ cm/s. Further, in data set [3], the P-gp classification result was “Non-substrate”, the “Mass balance A–B+GF918” value is 95% and the “Mass balance A–B” value was 89%. In addition, the Selectivity result in the data set with L929 mammalian cell line was “⩾136”.

In the case of `NCCCC(N)(C(=O)O)C(F)F` (stereo not shown) [eflornithine], the “in vitro MIC” value in the data set on T. brucei (ref Sanderson et al. [2008]) is “ca. 50 μM”. Besides, the “maximum concentration (CNS exposure)” value in [4] is 10 to 40 nM. For the same compound, in [5], the “CSF level at steady state” value was 5 to 150 nM.

For `Nc1nc(N)nc(Nc2ccc([As]3SCC(CO)S3)cc2)n1` (stereo not shown) [melarsoprol], the “in vitro MIC” value in the data set on T. brucei (ref Burri et al. [1994]) is 2 to 100 ng/mL. For the same compound, the CSF concentration in data set [6] is 39 to 79 ng/mL. The “maximum concentration in CSF” value in data set [7] is roughly 50 ng/mL. The “drug-induced death, patients” value in data set [8] (Stage 2 HAT patients, ref Schmid et al. [2004], Doua et al. [2005], Kuepfer et al. [2012]) was 2–10%. In data set [8] (ref Legros et al. [1999]), the “failure rate with treatment” value is 3–30%.

As to `Cc1ccc(C(=O)Nc2ccc(S(=O)(=O)O)c3cc(S(=O)(=O)O)cc(S(=O)(=O)O)c23)cc1NC(=O)c1cccc(NC(=O)Nc2cccc(C(=O)Nc3cc(C(=O)Nc4ccc(S(=O)(=O)O)c5cc(S(=O)(=O)O)cc(S(=O)(=O)O)c45)ccc3C)c2)c1` [suramin], the “fold change in IC50 between 2·5 and 50% calf serum” value in the data set on T. b. brucei came out at 26 fold.
